The target of test [1] is Tyrosine-protein kinase JAK2 (Homo sapiens, UniProt O60674). The experiment in a line: Inhibition of JAK2 (unknown origin) using FAM-labeled peptide as substrate preincubated for 10 mins followed by substrate addition and measured after 25 mins in presence of ATP.
Test [2] has as its target Histone deacetylase 1 (Homo sapiens, UniProt Q13547). The experiment in a line: Inhibition of full length human recombinant HDAC1 expressed in baculovirus expression system using (Ac-Leu-Gly-Lys(Ac)-AMC as substrate preincubated for 5 mins followed by substrate addition and measured after 30 mins by fluorescence assay.
Test [3] deals with HL-60. Put plainly: Antiproliferative activity against human HL60 cells after 48 hrs by CCK-8 assay. It is filed as functional, cell-based. To be noted: HL-60, 48 h. (Tetrazolium assays rely on reduction of a dye to a coloured formazan, in cell work by metabolically active cells.)
Test [4] concerns K562. Put plainly: Antiproliferative activity against human K562 cells after 48 hrs by CCK-8 assay. The class given is functional, cell-based. Conditions: K562, 48 h.
In test [5] the test system is HEL. Put plainly: Antiproliferative activity against human HEL cells after 48 hrs by CCK-8 assay. It is filed as functional, cell-based.
Test [6] concerns Candida albicans. Put plainly: microbe, parasite or virus in culture. It is filed as functional. Conditions: Candida albicans, 0304103, 48 h.
Description: Antifungal activity against FLC resistant Candida albicans 0304103 after 48 hrs by checkerboard microdilution method
Test [7] concerns Candida albicans. The experiment in a line: microbe, parasite or virus in culture. The class given is functional. To be noted: Candida albicans, 0304103, 48 h. This is another data set of the same source.
Description: Antifungal activity against FLC resistant Candida albicans 0304103 assessed as fluconazol MIC50 after 48 hrs by checkerboard microdilution method
Test [8] relates to Candida albicans. The experiment in a line: microbe, parasite or virus in culture. It is filed as functional. Conditions: Candida albicans, 0304103, 48 h. This is another data set of the same source.
Description: Antifungal activity against FLC resistant Candida albicans 0304103 after 48 hrs in presence of fluconazol by checkerboard microdilution method
In test [9] the test system is Candida albicans. Put plainly: Antifungal activity against FLC resistant Candida albicans 100 after 48 hrs by checkerboard microdilution method. Conditions: Candida albicans, 100, 48 h. It is filed as functional. On the technique in general: Broth dilution looks for growth in wells or tubes with falling amounts of substance.
In test [10] the test system is Candida albicans. The experiment in a line: microbe, parasite or virus in culture. The class given is functional. To be noted: Candida albicans, 100, 48 h.
Description: Antifungal activity against FLC resistant Candida albicans 100 assessed as fluconazol MIC50 after 48 hrs by checkerboard microdilution method
Test [11] deals with Candida albicans. Put plainly: Antifungal activity against FLC resistant Candida albicans 100 after 48 hrs in presence of fluconazol by checkerboard microdilution method. The class given is functional. To be noted: Candida albicans, 100, 48 h.
In test [12] the test system is Candida albicans. The experiment in a line: microbe, parasite or virus in culture. Conditions: Candida albicans, 0710922, 48 h. It is filed as functional.
Description: Antifungal activity against FLC resistant Candida albicans 0710922 after 48 hrs by checkerboard microdilution method
The subject of test [13] is Candida albicans. Put plainly: microbe, parasite or virus in culture. The class given is functional. Conditions: Candida albicans, 0710922, 48 h. This is another data set of the same source.
Description: Antifungal activity against FLC resistant Candida albicans 0710922 assessed as fluconazol MIC50 after 48 hrs by checkerboard microdilution method
Test [14] has as its system Candida albicans. The experiment in a line: microbe, parasite or virus in culture. Conditions: Candida albicans, 0710922, 48 h. It is filed as functional. The source holds these as a separate data set.
Description: Antifungal activity against FLC resistant Candida albicans 0710922 after 48 hrs in presence of fluconazol by checkerboard microdilution method
The test system of test [15] is Candida albicans. The experiment in a line: Synergistic antifungal activity against FLC resistant Candida albicans 0304103 assessed as FIC index after 48 hrs by checkerboard microdilution method. It is filed as functional.
The test system of test [16] is Candida albicans. The experiment in a line: Synergistic antifungal activity against FLC resistant Candida albicans 100 assessed as FIC index after 48 hrs by checkerboard microdilution method. It is filed as functional.
For test [17], the system named is Candida albicans. Put plainly: Synergistic antifungal activity against FLC resistant Candida albicans 0710922 assessed as FIC index after 48 hrs by checkerboard microdilution method. It is filed as functional.

We go through four molecules from ChEMBL document CHEMBL4145634, “Discovery of Janus Kinase 2 (JAK2) and Histone Deacetylase (HDAC) Dual Inhibitors as a Novel Strategy for the Combinational Treatment of Leukemia and Invasive Fungal Infections” (J Med Chem, 2018).

Structures are written as SMILES. Converted amounts (≈) assume the structure as drawn.

By IC50 is commonly meant the concentration that inhibits the measured activity by half.

Histone deacetylase 1, sequence (Q13547 whole entry): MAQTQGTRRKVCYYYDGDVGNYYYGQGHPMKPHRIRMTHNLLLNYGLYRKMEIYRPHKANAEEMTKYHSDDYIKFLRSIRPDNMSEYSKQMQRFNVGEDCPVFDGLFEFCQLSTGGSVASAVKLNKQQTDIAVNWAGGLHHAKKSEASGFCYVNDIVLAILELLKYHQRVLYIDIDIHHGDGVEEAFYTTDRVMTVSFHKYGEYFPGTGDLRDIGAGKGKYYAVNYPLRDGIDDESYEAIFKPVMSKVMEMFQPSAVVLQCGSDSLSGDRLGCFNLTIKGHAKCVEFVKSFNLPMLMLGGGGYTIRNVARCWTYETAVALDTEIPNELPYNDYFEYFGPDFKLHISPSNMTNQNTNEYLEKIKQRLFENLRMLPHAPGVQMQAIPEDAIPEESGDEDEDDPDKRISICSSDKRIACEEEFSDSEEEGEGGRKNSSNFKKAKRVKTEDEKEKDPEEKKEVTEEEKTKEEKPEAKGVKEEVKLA
Tyrosine-protein kinase JAK2, sequence (O60674 whole entry): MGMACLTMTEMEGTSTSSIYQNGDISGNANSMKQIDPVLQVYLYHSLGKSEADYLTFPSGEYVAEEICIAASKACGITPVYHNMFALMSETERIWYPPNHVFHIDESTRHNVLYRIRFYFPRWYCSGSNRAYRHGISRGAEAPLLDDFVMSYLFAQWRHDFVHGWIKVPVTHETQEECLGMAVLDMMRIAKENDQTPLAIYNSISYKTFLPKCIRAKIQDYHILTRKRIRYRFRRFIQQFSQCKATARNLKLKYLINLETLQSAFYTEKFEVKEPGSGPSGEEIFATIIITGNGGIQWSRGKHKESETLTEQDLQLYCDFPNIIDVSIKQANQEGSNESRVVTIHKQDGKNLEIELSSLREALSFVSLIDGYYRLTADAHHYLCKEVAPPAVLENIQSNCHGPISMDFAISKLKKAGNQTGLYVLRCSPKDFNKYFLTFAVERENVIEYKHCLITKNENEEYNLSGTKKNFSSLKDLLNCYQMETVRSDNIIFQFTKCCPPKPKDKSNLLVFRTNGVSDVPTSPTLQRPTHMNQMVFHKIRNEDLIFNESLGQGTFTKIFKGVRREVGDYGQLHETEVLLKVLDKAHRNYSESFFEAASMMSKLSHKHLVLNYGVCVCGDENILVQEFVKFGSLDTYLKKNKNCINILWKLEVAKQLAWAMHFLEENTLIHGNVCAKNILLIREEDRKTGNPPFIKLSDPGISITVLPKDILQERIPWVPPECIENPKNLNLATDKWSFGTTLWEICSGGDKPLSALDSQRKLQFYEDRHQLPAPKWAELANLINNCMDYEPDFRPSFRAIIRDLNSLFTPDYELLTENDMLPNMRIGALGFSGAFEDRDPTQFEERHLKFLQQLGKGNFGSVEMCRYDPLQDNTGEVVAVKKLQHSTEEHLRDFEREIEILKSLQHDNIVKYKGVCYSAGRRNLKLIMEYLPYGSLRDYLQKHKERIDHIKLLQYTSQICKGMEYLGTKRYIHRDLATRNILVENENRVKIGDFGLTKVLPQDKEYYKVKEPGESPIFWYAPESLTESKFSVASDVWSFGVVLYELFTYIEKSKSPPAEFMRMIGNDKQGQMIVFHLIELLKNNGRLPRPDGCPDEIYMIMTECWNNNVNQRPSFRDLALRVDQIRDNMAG

Consider `N#CCNC(=O)c1ccc(-c2ccnc(Nc3ccc(N4CCC(C(=O)Nc5ccc(C(=O)NO)cc5)CC4)cc3)n2)cc1`, for which the IC50 is 0.016 µM in [1]; 24 µM in test [2]; over 50 µM in test [3]; over 50 µM in test [4]; over 50 µM in [5]. The MIC50 was over 64 µg/mL in test [6]; 0.5 µg/mL (≈ 0.847 µM) in [7]; 64 µg/mL (≈ 108 µM) in [8]; over 64 µg/mL in test [9]; 2 µg/mL (≈ 3.39 µM) in test [10]; 64 µg/mL in test [11]. For the same molecule, the MIC50 in test [12], in test [13] and in [14] was over 64 µg/mL each time. Moreover, the entries for the “fractional inhibitory concentration index (FICI)” value in [15], in [16] and in [17] were 1.01, 1.03 and over 2, respectively.

For `Nc1ccccc1NC(=O)c1ccc(-c2ccnc(Nc3ccc(N4CCOCC4)cc3)n2)cc1`, the IC50 in [1] is 0.11 µM; in test [2], over 50 µM; in test [3], over 50 µM; in [4], over 50 µM; in test [5], over 50 µM. For the same molecule, the MIC50 in test [6] was over 64 µg/mL; in [7], over 64 µg/mL; in test [8] it was over 64 µg/mL; in [9], over 64 µg/mL; in [10], 0.5 µg/mL (≈ 1.07 µM); in test [11] it was 64 µg/mL. The MIC50 in [12], in test [13] and in test [14] was over 64 µg/mL throughout. Also, the results for the “fractional inhibitory concentration index (FICI)” value in test [15], in [16] and in test [17] were over 2, 1.01 and over 2, respectively.

`CS(=O)(=O)Nc1ccc(-c2ccnc(Nc3ccc(N4CCC(C(=O)NCCCC(=O)NO)CC4)cc3)n2)cc1`: the IC50 in test [1] was 0.001 µM; in test [2], 9.2 µM; in [3], over 50 µM; in test [4] it was 12 µM; in test [5], 12 µM. For the same molecule, the MIC50 in test [6] was 32 µg/mL (≈ 56.4 µM); in test [7], 4 µg/mL (≈ 7.05 µM); in test [8] it was 8 µg/mL (≈ 14.1 µM); in [9] it was over 64 µg/mL; in test [10] it was 1 µg/mL (≈ 1.76 µM); in test [11] it was 8 µg/mL. Also, the MIC50 in test [12] is over 64 µg/mL; in test [13], 0.5 µg/mL (≈ 0.881 µM); in [14] it was 32 µg/mL (≈ 56.4 µM). For the same molecule, the “fractional inhibitory concentration index (FICI)” value was determined as 0.31 in test [15], 0.14 in [16] and 0.51 in test [17].

For `N#CCNC(=O)c1ccc(-c2ccnc(Nc3ccc(N4CCC(C(=O)Nc5ccc(/C=C/C(=O)NO)cc5)CC4)cc3)n2)cc1`, the IC50 in [1] is 0.015 µM; in test [2], 5.1 µM; in test [3], over 50 µM; in test [4] it was over 50 µM; in test [5], over 50 µM. The MIC50 is over 64 µg/mL in [6]; 1 µg/mL (≈ 1.62 µM) in test [7]; 4 µg/mL (≈ 6.49 µM) in test [8]; over 64 µg/mL in test [9]; 1 µg/mL (≈ 1.62 µM) in test [10]; 64 µg/mL in test [11]. The MIC50 in [12] is over 64 µg/mL; in test [13], 2 µg/mL (≈ 3.24 µM); in [14] it was 16 µg/mL (≈ 25.9 µM). Also, the “fractional inhibitory concentration index (FICI)” value in test [15] is 0.078; in test [16], 1.02; in test [17] it was 0.31.
